Data published in ChEMBL document CHEMBL1152560, “Substituted 2-arylbenzothiazoles as kinase inhibitors: hit-to-lead optimization” (Bioorg Med Chem, 2009).

Tests used:
[1] = biological target: Homeodomain-interacting protein kinase 1 (Homo sapiens) (UniProt Q86Z02); experiment: Residual activity of HIPK1 at 1 uM by microplate scintillation counting
[2] = biological target: T1, Tyrosine-protein kinase JAK3 (Homo sapiens) (UniProt P52333); experiment: Residual activity of JAK3 at 0.1 uM by microplate scintillation counting
T1 sequence (whole entry): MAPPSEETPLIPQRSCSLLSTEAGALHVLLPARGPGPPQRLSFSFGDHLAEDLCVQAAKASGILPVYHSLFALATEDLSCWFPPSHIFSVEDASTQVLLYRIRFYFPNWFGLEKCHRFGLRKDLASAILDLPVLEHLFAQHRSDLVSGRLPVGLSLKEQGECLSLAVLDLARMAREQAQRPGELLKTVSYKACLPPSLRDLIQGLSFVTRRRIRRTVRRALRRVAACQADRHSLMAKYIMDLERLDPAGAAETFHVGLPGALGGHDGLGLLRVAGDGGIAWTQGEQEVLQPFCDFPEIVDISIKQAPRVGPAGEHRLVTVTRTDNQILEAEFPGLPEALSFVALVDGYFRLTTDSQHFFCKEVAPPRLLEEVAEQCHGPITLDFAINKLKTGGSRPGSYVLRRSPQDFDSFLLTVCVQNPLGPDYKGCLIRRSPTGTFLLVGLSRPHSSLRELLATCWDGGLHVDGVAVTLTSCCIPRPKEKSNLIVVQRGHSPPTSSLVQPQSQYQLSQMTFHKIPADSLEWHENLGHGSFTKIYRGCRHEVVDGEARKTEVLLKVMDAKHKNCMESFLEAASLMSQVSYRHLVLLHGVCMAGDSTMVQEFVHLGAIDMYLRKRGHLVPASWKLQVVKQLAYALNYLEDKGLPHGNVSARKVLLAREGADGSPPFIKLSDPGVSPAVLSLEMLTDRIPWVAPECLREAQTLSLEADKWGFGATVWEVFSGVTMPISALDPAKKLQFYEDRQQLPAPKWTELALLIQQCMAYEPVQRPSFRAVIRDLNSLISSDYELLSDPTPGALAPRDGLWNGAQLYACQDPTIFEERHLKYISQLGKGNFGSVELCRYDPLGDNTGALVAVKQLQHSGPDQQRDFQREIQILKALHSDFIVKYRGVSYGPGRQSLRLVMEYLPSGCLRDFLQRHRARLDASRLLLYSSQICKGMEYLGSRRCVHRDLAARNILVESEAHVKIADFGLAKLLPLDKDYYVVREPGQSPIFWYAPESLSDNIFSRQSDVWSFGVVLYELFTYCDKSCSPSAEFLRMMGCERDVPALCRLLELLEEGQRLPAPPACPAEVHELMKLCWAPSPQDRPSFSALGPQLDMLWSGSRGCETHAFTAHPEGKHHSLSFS

[3] = biological target: Tyrosine-protein kinase Lyn (Homo sapiens) (UniProt P07948); experiment: Residual activity of LYN at 0.1 uM by microplate scintillation counting
[4] = biological target: Casein kinase I isoform delta (Homo sapiens) (UniProt P48730); experiment: Residual activity of CK1delta at 10 uM by microplate scintillation counting
[5] = biological target: Casein kinase I isoform gamma-3 (Homo sapiens) (UniProt Q9Y6M4); experiment: Residual activity of CK1gamma3 at 10 uM by microplate scintillation counting
[6] = biological target: Death-associated protein kinase 3 (Homo sapiens) (UniProt O43293); experiment: Residual activity of DAPK3 at 10 uM by microplate scintillation counting
[7] = biological target: T2, NUAK family SNF1-like kinase 1 (Homo sapiens) (UniProt O60285); experiment: Residual activity of ARK5 at 10 uM by microplate scintillation counting
T2 sequence (whole entry): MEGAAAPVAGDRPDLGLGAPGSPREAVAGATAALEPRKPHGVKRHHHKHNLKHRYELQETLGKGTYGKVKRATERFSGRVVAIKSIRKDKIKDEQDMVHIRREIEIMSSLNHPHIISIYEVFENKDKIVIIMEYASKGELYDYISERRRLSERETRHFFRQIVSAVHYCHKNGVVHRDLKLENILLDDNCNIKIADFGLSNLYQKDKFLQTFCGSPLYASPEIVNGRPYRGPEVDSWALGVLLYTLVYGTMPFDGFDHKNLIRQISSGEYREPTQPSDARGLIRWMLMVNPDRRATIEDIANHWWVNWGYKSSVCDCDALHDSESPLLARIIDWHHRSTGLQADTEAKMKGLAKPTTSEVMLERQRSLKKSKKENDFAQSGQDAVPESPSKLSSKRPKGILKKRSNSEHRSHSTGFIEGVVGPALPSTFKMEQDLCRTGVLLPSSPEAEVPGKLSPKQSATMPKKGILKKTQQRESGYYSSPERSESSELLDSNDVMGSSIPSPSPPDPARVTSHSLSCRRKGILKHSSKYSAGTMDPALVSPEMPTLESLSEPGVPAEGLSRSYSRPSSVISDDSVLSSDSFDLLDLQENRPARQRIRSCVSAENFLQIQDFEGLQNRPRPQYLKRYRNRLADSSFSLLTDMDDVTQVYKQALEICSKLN

[8] = biological target: Tyrosine-protein kinase receptor UFO (Homo sapiens) (UniProt P30530); experiment: Residual activity of AXL at 1 uM by microplate scintillation counting
[9] = biological target: CDK6/cyclin D1 (Homo sapiens) (UniProt P24385+Q00534); experiment: Residual activity of CDK6/Cyclin D1 at 10 uM by microplate scintillation counting; assay type: protein-complex assay
[10] = biological target: Mitogen-activated protein kinase kinase kinase 14 (Homo sapiens) (UniProt Q99558); experiment: Residual activity of NIK at 10 uM by microplate scintillation counting
[11] = biological target: Protein kinase C alpha type (Homo sapiens) (UniProt P17252); experiment: Residual activity of PKCalpha at 10 uM by microplate scintillation counting
[12] = biological target: CDK4/Cyclin D3 (Homo sapiens) (UniProt P11802+P30281); experiment: Residual activity of CDK4/Cyclin D3 at 1 uM by microplate scintillation counting; assay type: protein-complex assay
[13] = biological target: Casein kinase I isoform gamma-2 (Homo sapiens) (UniProt P78368); experiment: Residual activity of CK1gamma2 at 0.1 uM by microplate scintillation counting
Casein kinase I isoform gamma-2 (Homo sapiens), sequence (P78368 whole entry, looked up, canonical isoform): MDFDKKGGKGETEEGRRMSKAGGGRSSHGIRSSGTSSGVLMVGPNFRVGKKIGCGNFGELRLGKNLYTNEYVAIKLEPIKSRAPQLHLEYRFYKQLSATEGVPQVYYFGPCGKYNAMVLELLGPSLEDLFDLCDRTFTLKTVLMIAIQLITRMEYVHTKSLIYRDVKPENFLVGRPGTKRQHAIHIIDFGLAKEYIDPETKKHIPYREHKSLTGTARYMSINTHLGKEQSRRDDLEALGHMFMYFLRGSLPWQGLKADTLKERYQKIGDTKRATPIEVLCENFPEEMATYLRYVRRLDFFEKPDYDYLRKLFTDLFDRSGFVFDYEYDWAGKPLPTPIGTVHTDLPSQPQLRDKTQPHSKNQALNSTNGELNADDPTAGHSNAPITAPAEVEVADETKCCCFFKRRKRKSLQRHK

Death-associated protein kinase 3 (Homo sapiens), sequence (O43293 whole entry, looked up): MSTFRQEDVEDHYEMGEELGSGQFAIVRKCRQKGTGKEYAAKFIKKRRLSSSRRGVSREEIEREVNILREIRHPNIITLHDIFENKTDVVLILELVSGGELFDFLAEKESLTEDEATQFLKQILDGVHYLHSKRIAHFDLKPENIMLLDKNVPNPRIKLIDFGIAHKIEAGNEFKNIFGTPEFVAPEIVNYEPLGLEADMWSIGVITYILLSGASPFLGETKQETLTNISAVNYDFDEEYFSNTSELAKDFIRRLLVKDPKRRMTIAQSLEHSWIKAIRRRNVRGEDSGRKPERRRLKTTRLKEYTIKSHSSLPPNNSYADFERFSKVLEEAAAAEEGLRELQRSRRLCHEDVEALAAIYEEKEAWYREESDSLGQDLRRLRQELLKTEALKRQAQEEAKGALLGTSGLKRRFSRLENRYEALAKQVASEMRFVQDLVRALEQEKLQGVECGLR
Tyrosine-protein kinase Lyn (Homo sapiens), sequence (P07948 2-512 limits assumed): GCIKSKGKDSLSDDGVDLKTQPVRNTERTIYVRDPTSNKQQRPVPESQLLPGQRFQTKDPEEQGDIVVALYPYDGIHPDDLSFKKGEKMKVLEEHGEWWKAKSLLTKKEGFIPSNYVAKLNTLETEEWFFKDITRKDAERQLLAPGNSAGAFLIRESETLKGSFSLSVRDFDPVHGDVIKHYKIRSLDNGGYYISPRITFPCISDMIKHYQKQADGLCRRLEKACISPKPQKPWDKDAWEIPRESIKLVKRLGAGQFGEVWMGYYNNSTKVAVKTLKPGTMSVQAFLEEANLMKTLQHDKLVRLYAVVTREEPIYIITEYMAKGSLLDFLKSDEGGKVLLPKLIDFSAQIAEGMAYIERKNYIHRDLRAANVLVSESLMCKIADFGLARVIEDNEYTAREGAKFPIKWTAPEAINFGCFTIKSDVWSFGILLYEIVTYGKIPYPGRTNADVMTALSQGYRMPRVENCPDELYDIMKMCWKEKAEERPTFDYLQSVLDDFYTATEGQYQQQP
Mitogen-activated protein kinase kinase kinase 14 (Homo sapiens), sequence (Q99558 whole entry, looked up): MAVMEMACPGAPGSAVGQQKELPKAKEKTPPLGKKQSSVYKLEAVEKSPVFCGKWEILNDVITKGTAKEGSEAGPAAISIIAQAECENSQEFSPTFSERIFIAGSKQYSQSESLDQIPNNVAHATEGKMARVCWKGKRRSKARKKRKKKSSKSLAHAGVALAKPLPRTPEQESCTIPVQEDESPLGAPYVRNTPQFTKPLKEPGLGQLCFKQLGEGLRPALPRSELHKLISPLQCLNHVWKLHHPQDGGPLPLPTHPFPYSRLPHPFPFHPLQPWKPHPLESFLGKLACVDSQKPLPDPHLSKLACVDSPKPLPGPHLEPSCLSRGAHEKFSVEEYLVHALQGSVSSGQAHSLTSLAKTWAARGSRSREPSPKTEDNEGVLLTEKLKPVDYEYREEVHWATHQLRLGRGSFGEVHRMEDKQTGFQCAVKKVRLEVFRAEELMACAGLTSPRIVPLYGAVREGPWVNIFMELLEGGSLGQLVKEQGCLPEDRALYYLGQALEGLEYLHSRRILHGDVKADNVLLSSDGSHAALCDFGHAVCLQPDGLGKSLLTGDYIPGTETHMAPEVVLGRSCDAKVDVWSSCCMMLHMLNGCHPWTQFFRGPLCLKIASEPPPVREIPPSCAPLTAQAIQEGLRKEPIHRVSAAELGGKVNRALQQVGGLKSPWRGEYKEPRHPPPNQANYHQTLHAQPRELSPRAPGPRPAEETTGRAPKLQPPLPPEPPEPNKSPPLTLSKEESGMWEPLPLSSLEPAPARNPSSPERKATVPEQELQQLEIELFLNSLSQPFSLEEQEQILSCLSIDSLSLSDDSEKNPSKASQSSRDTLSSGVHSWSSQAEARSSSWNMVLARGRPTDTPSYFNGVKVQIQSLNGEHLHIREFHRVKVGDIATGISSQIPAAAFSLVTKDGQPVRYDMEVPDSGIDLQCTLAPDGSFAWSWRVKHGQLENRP
Tyrosine-protein kinase receptor UFO (Homo sapiens), sequence (P30530 whole entry): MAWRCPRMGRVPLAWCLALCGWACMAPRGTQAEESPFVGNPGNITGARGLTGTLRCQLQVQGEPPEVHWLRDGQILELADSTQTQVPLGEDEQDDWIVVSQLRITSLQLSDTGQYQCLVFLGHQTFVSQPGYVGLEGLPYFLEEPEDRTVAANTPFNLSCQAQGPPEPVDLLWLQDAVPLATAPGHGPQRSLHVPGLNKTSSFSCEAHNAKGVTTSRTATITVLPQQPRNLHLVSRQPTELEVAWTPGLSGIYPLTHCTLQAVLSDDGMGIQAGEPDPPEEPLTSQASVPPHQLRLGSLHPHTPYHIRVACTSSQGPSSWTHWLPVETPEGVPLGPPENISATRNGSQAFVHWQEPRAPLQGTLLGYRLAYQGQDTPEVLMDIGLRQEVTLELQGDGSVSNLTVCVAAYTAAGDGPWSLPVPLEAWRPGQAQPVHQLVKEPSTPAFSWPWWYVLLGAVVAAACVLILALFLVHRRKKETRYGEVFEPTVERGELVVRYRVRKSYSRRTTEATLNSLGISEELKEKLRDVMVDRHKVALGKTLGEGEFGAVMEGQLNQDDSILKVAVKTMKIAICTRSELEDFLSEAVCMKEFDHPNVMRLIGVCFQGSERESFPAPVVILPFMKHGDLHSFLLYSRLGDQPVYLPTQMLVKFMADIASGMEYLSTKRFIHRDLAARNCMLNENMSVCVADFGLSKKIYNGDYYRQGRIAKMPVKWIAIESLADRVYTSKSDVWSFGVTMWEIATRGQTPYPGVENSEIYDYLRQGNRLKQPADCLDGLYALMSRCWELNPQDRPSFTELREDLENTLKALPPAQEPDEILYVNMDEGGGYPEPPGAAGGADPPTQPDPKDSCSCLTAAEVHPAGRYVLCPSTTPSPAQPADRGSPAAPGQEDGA
Casein kinase I isoform gamma-3 (Homo sapiens), sequence (Q9Y6M4 whole entry, looked up, canonical isoform): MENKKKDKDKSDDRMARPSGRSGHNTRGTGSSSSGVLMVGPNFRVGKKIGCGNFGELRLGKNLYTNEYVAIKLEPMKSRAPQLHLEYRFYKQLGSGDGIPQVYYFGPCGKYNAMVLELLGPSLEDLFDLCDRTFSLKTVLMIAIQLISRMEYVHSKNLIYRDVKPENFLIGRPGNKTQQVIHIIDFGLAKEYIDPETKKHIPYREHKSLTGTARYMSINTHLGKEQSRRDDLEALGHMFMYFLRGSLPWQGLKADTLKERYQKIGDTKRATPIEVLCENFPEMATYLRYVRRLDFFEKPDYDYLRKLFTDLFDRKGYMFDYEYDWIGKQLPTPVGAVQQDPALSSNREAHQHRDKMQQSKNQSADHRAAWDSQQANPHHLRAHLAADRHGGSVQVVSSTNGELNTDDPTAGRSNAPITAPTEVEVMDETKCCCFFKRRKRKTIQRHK
Casein kinase I isoform delta (Homo sapiens), sequence (P48730 whole entry, looked up, canonical isoform): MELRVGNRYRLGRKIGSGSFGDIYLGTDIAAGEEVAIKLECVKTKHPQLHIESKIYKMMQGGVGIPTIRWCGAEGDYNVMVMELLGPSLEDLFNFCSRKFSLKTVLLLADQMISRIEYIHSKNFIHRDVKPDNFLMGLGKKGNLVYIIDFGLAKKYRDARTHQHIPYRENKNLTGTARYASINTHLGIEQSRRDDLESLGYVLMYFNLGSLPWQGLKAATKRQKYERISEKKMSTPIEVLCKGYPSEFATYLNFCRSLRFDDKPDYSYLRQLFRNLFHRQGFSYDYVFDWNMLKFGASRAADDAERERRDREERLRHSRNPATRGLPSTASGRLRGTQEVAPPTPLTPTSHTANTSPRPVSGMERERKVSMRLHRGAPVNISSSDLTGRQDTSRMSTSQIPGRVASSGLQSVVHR

residual activity [1]	residual activity [2]	residual activity [3]	residual activity [4]	residual activity [5]	residual activity [7]	residual activity [8]	residual activity [9]	residual activity [10]	residual activity [11]	residual activity [12]	residual activity [13]	SMILES	residual activity [6]
77%	98%	108%	133%	101%	109%	71%	140%	125%	61%	105%	93%	COc1cc2c(Oc3ccc(-c4nc5ccccc5s4)cc3)ncnc2cc1OCCCN1CCCC1	90%
82%	95%	112%	156%	107%	127%	88%	193%	94%	80%	95%	93%	COc1cc2c(Oc3ccc(-c4nc5ccccc5s4)cc3)ncnc2cc1OCCCN1CCN(C)CC1	96%
81%	90%	102%	149%	105%	139%	89%	167%	107%	50%	86%	90%	COc1cc2c(Oc3ccc(-c4nc5ccccc5s4)cc3F)ncnc2cc1OCCCN1CCN(C)CC1	89%
